# In patent US20180077929A1, “METHODS AND SYSTEMS FOR TREATING MEDICAL DEVICES AND FLUIDS” (priority 2016, published 2018):
# Where “and” joins values, the source holds several entries; their conditions need not be identical. Identical values can stand only once.
# Legend:
# [1] = Effect of storage (dwell time) on efficacy of pre-mixed CaSt suspensions; format: biochemical; details: 15 minutes
# Description: Efficacy of pre-mixed CaSt suspensions (sonicated and vortexed) was tested, comparing efficacy of immediately prepared suspensions with suspensions having shelf life or dwell time of 90 min, 5 days, and 1 month prior to contact with endotoxin containing solutions.
# 10 mL SRW was then introduced to the sonicated CaSt mixture. It was then vortexed for 5 seconds to fully incorporate the sonicated CaSt. The mixture was then tested after 15 minutes of interaction to measure the percent decrease of endotoxin.
# 10 mL SRW was then introduced to the vortexed CaSt mixture. It was then vortexed for 5 seconds to fully incorporate the sonicated CaSt. The mixture was then tested after 15 minutes of interaction to measure the percent decrease of endotoxin.
# These mixtures were then tested on the Charles River MCS at a dilution of 1:2000 after 15 minutes of interaction.
# Test samples were prepared as described above, sonicated and vortexed, but were subjected to shelf life or dwell time of 90 min, 5 days, and 1 month prior to contact with endotoxin containing solution (SRW). After dwell time exposure, similarly to the immediate mixing test above, 10 mL SRW was then introduced to the sonicated or vortexed CaSt mixture. It was then vortexed for 5 seconds to fully incorporate the sonicated CaSt. The mixture was then tested after 15 minutes of interaction to measure the percent decrease of endotoxin. These mixtures were then tested on the Charles River MCS at a dilution of 1:2000 after 15 minutes of interaction.
# *The 1 month shelf life sample was only tested at 0.04 g CaSt and measured the percent removal after 15 minutes of interaction as well as 30 minutes after interaction.
# [2] = Testing of various sources of LPS with CaSt in water; format: biochemical
# Description: Therefore, for the methods described above, the activity of endotoxin was tested with various sources of endotoxin. Laboratory grown endotoxin is purified while natural endotoxin will be present with other substances such as proteins and phospholipids.
# The laboratory grown endotoxin used in this experiment was supplied by Charles River Laboratories.
# Natural airborne endotoxin was captured using an electret filter. Electret filters are produced from dielectric polymer fibers that develop an electrical charge when air flows past them, capturing the endotoxin along with other particles. The endotoxin was extracted from the filter by placing the filter in endotoxin free water for an extended period of time.
# Two other natural sources of endotoxin were obtained from water samples in the surrounding environment. One source was a pool of sitting rain water and other being a small puddle on the side of the Raritan River. The sitting rain water (SRW) was purified via chlorination and 0.2 μm filter. The Raritan River Water (RRW) was not altered in anyway. The same testing procedure was conducted for all sources of endotoxin.
# [3] = 0.02 g CaSt, Sonicated, 5 Day dwell time
# [4] = 0.02 g CaSt, Sonicated, 90 min dwell time
# [5] = 0.02 g CaSt, Sonicated, Immediate Mixing
# [6] = 0.02 g CaSt, Vortexed, 5 Day dwell time
# [7] = 0.02 g CaSt, Vortexed, 90 min dwell time
# [8] = 0.04 g CaSt, Sonicated, 1 Month dwell time
# [9] = 0.04 g CaSt, Sonicated, 5 Days dwell time
# [10] = 0.04 g CaSt, Sonicated, 90 min dwell time
# [11] = 0.04 g CaSt, Sonicated, Immediate Mixing
# [12] = 0.04 g CaSt, Vortexed, 5 Days dwell time
# [13] = 0.04 g CaSt, Vortexed, 90 min dwell time
# [14] = 0.04 g CaSt, Vortexed, Immediate Mixing
# [15] = Charles River Standard, 8330 EU spiked, 0.05 g Calcium Stearate
# [16] = Charles River Standard, 8330 EU spiked, 0.15 g Calcium Stearate
# [17] = Charles River Standard, 8330 EU spiked, 0.25 g Calcium Stearate
# [18] = Dust Filter Extraction Water, 9280 EU spiked, 0.01 g Calcium Stearate
# [19] = Dust Filter Extraction Water, 9280 EU spiked, 0.25 g Calcium Stearate
# [20] = RRW endotoxin, 4340 EU spiked, 0.01 g Calcium Stearate
# [21] = RRW endotoxin, 4340 EU spiked, 0.1 g Calcium Stearate
# [22] = RRW endotoxin, 4340 EU spiked, 0.25 g Calcium Stearate
# [23] = SRW endotoxin, 11100 EU spiked, 0.01 g Calcium Stearate
substance,measurement,setting,value
Calcium Stearate,EU After,"[1]; 0.02 g CaSt in 10 mL LRW, Sonicated, Immediate Mixing with 10 mL SRW, 36,100 EU before","8,960 EU and 10,240 EU"
same,Average Percent Change,[1]; [3],76%
same,Percent Endotoxin Removed,[1]; [3],76%
same,EU After,"[1]; 0.02 g CaSt, Sonicated, 5 Day dwell time, 37,800 EU before","9,200 EU"
same,Average Percent Change,[1]; [4],61%
same,Percent Endotoxin Removed,[1]; [4],58% and 64%
same,EU After,"[1]; 0.02 g CaSt, Sonicated, 90 min dwell time, 36,100 EU before","15,120 EU and 12,960 EU"
same,Average Percent Change,[1]; [5],74%
same,Percent Endotoxin Removed,[1]; [5],75% and 72%
same,Average Percent Change,[1]; [6],64%
same,Percent Endotoxin Removed,[1]; [6],60% and 68%
same,EU After,"[1]; 0.02 g CaSt, Vortexed, 5 Day dwell time, 37,800 EU before","15,120 EU and 12,160 EU"
same,Average Percent Change,[1]; [7],43%
same,Percent Endotoxin Removed,[1]; [7],38% and 47%
same,EU After,"[1]; 0.02 g CaSt, Vortexed, 90 min dwell time, 36,100 EU before","22,400 EU and 19,280 EU"
same,Average Percent Change,"[1]; 0.02 g CaSt, Vortexed, Immediate Mixing",32%
same,EU After,"[1]; 0.02 g CaSt, Vortexed, Immediate Mixing, 36,100 EU before","29,200 EU and 20,480 EU"
same,EU After,"[1]; 0.04 g CaSt in 10 mL LRW, Sonicated, Immediate Mixing with 10 mL SRW, 36,100 EU before","5,320 EU and 5,800 EU"
same,Average Percent Change,[1]; [8],50%
same,Percent Endotoxin Removed,[1]; [8],49.2% and 50.6%
same,Average Percent Change,[1]; [9],85%
same,Percent Endotoxin Removed,[1]; [9],87% and 83%
same,Average Percent Change,[1]; [10],81%
same,Percent Endotoxin Removed,[1]; [10],83% and 78%
same,Average Percent Change,[1]; [11],85%
same,Percent Endotoxin Removed,[1]; [11],85% and 84%
same,EU After,"[1]; 0.04 g CaSt, Sonicated, Mixing after 1 Month dwell time, 14,650 EU before","7,440 EU and 7,240 EU"
same,EU After,"[1]; 0.04 g CaSt, Sonicated, Mixing after 5 Days dwell time, 37,800 EU before","5,040 EU and 6,560 EU"
same,EU After,"[1]; 0.04 g CaSt, Sonicated, Mixing after 90 min dwell time, 36,100 EU before","6,168 EU and 8,000 EU"
same,Average Percent Change,[1]; [12],75%
same,Percent Endotoxin Removed,[1]; [12],76% and 74%
same,Average Percent Change,[1]; [13],54%
same,Percent Endotoxin Removed,[1]; [13],53% and 54%
same,Average Percent Change,[1]; [14],44%
same,Percent Endotoxin Removed,[1]; [14],45% and 43%
same,EU After,"[1]; 0.04 g CaSt, Vortexed, Immediate Mixing, 36,100 EU before","19,840 EU and 20,480 EU"
same,EU After,"[1]; 0.04 g CaSt, Vortexed, Mixing after 5 Days dwell time, 37,800 EU before","9,080 EU and 9,760 EU"
same,EU After,"[1]; 0.04 g CaSt, Vortexed, Mixing after 90 min dwell time, 36,100 EU before","17,120 EU and 16,460 EU"
same,percent of endotoxin recovered,"[2]; 0.1 grams of calcium stearate and higher, all sources of endotoxin",under 5%
same,Percent of Endotoxin Detected,"[2]; Charles River Standard, 8330 EU spiked, 0.007 g Calcium Stearate",48.0%
same,Percent of Endotoxin Detected,"[2]; Charles River Standard, 8330 EU spiked, 0.018 g Calcium Stearate",17.9%
same,Percent of Endotoxin Detected,"[2]; Charles River Standard, 8330 EU spiked, 0.028 g Calcium Stearate",2.8%
same,Endotoxin Detected,[2]; [15],190.5 EU
same,Percent of Endotoxin Detected,[2]; [15],2.3%
same,Endotoxin Detected,[2]; [16],86.5 EU
same,Percent of Endotoxin Detected,[2]; [16],1.0%
same,Endotoxin Detected,[2]; [17],38.5 EU
same,Percent of Endotoxin Detected,[2]; [17],0.5%
same,Endotoxin Detected,[2]; [18],3440 EU
same,Percent of Endotoxin Detected,[2]; [18],37.1%
same,Endotoxin Detected,[2]; [19],28.5 EU
same,Percent of Endotoxin Detected,[2]; [19],0.3%
same,Endotoxin Detected,[2]; [20],960 EU
same,Percent of Endotoxin Detected,[2]; [20],22.1%
same,Endotoxin Detected,[2]; [21],165 EU
same,Percent of Endotoxin Detected,[2]; [21],3.8%
same,Endotoxin Detected,[2]; [22],70 EU
same,Percent of Endotoxin Detected,[2]; [22],1.6%
same,Percent of Endotoxin Detected,"[2]; RRW endotoxin, 4340 EU spiked, 0.35 g Calcium Stearate",2.6%
same,Endotoxin Detected,[2]; [23],2780 EU
same,Percent of Endotoxin Detected,[2]; [23],25.0%
same,Percent of Endotoxin Detected,"[2]; SRW endotoxin, 11100 EU spiked, 0.25 g Calcium Stearate",1.0%
